Reference: PubChem BioAssay AID463203 (Broad Institute, 2010)
Activity calls are given as the source filed them.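 Rule for the calls: active = more than half of replicate measurements showing over 20% loss of kinase signal relative to plate controls; inconclusive = some but at most half of replicates over 20% loss; inactive = no replicate over 20% signal loss.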

molecular target: Glycogen synthase kinase-3 alpha (Homo sapiens) (UniProt P49840); assay: concentration-response blocking of human GSK3A – biochemical, luminescence, cell-free homogeneous, retest, dose response (AID 463203); conditions: GSK-3 alpha enzyme, ADP-Glo luminescence, 60 min
Sequence (P49840 whole entry, looked up): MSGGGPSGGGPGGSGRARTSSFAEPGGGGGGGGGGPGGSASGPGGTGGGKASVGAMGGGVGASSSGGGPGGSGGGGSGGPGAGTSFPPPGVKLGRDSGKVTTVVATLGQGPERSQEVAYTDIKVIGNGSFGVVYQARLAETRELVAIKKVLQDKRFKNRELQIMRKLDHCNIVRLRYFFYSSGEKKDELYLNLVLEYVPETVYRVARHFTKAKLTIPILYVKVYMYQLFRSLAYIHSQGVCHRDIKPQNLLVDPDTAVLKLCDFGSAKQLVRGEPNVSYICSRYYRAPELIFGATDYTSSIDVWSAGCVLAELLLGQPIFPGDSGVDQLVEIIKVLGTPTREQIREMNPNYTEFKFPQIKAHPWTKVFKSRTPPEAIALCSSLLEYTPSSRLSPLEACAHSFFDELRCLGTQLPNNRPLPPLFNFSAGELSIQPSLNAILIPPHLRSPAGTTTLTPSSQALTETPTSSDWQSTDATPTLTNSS

SMILES	AC50
Cn1c(=O)c2c(nc(NCC3CCCO3)n2Cc2ccccc2)n(C)c1=O (centres undefined)	> 30 µM (inactive)
CCc1ccc(C2C3=C(CC(C)(C)CC3=O)Nc3c2c(=O)[nH]c2nc(C)nn32)cc1 (centres undefined)	> 30 µM (inactive)
CC1CCN(CCCNc2cc(NCCO)c([N+](=O)[O-])c3nonc23)CC1	> 30 µM (inactive)
Cc1ccc(N(CC(O)CN2CCCC2)S(=O)(=O)c2ccccc2)cc1 (centres undefined)	> 30 µM (inactive)
Cc1ccc(S(=O)(=O)N(CC(O)CN2CCCCC2)c2ccccc2)cc1 (centres undefined)	> 30 µM (inactive)
O=C(CN(Cc1ccco1)C(=O)CCC(=O)Nc1ccccn1)NCc1ccccc1	> 30 µM (inactive)
CC(=O)c1cccc(NC(=S)NC(=O)CC(C)C)c1	> 30 µM (inactive)
Cc1oc2ccc(O)c(CN3CCOCC3)c2c1C(=O)c1ccc(Cl)cc1	> 30 µM (inactive)
CC(C)c1ccc(NC(=O)CSc2n[nH]c(=O)n2-c2ccc3c(c2)OCCO3)cc1	> 30 µM (inactive)
O=C(O)c1cc(NC(=O)c2ccccc2[N+](=O)[O-])ccc1O	> 30 µM (inactive)
CC(C)NC(=O)Nc1cccc(Cl)c1	> 30 µM (inactive)
Cc1noc(C)c1COc1ccc(C(=O)OCC(=O)Nc2c(C)n(C)n(-c3ccccc3)c2=O)cc1	> 30 µM (inactive)
COc1ccccc1OCCNC(=O)C1CCN(C(C)=O)CC1	> 30 µM (inactive)
Cc1onc(-c2c(F)cccc2Cl)c1C(=O)OCC(=O)Nc1c(C)n(C)n(-c2ccccc2)c1=O	> 30 µM (inactive)
COc1ccc(-c2nc(N)ncc2-c2ccc(OC)c(OC)c2)c(O)c1	29.2 µM
CCCC1=C(C(=O)OCC)C(c2ccc(N(C)C)cc2)n2ncnc2N1 (centres undefined)	> 30 µM (inactive)
COc1ccc(/C=C2\Oc3cc(OCC(=O)N4CCC[C@H]4C(=O)O)ccc3C2=O)cc1OC	> 30 µM (inactive)
Cc1cccc(-n2nc(C)c3c2NC2=C(C(=O)CCC2)C3c2ccccn2)c1 (centres undefined)	> 30 µM (inactive)
O=c1cc(-c2ccc(O)c(O)c2)oc2c1ccc1ccccc12	5.66 µM
COc1ccc(NC(=O)CSc2nnc(-c3cccc(O)c3)o2)cc1	> 30 µM (inactive)
COc1ccccc1NC(=O)c1cc(Cl)ccc1NC(=O)c1ccco1	> 30 µM (inactive)
O=C(CNCC1CCCO1)Nc1ccc([N+](=O)[O-])cc1C(=O)Nc1ccccc1F (centres undefined)	> 30 µM (inactive)
Cc1ccc(C(=O)N2NC(c3ccc(F)cc3)C3C(=O)N(c4ccc(C)cc4)C(=O)C32)cc1 (centres undefined)	> 30 µM (inactive)
O=c1c(O)cccc2cc(O)c(O)c(O)c12	21.1 µM
CCC(=O)N1CCN(c2cc(NCC3CCCO3)c(F)cc2[N+](=O)[O-])CC1 (centres undefined)	21.7 µM

SMILES	AC50
O=C(Nc1cccc(Cl)c1N1CCOCC1)c1ccc(Br)o1	> 30 µM (inactive)
O=C(COC(=O)Cc1ccsc1)Nc1ccc(Cl)cn1	28.4 µM
Fc1ccc(Nc2ccnc(Nc3ccc(F)cc3)n2)cc1	> 30 µM (inactive)
Cc1c(/C=N/Nc2ccc([N+](=O)[O-])cn2)c2ccccc2n1Cc1ccccc1	> 30 µM (inactive)
O=C(c1ccco1)N(Cc1cccc([N+](=O)[O-])c1)c1ccc(Br)cc1	> 30 µM (inactive)
CCOc1ccc(-c2c(C(=O)N/N=C(\C)c3ccncc3)nnn2-c2nonc2N)cc1	20.9 µM
O=C(Nc1cccc(O)c1)c1ccc([N+](=O)[O-])cc1Cl	> 30 µM (inactive)
Oc1ccc(-c2nc3ncccn3c2Nc2ccc3c(c2)OCCO3)cc1	> 30 µM (inactive)
CCN1C(=O)c2ccc(C(=O)NCc3ccc4c(c3)OCO4)cc2C1=O	> 30 µM (inactive)
CC(=O)c1c(O)ccc2c(-c3ccccc3)cc(=O)oc12	> 30 µM (inactive)
COc1c(/C=C2\SC(=Nc3ccccc3Cl)NC2=O)cccc1[N+](=O)[O-]	> 30 µM (inactive)
COc1c(-c2ccc(O)c(O)c2)oc2cc(O)cc(O)c2c1=O	1.93 µM
CN(C)C(=O)Oc1ccc(OC(=O)N(C)C)cc1	> 30 µM (inactive)
O=C(CSc1ncnc2sc3c(c12)CCC3)NCC1CCCO1 (centres undefined)	> 30 µM (inactive)
COc1ccc(-n2c(C)nc(N)c2C(=O)c2ccccc2)cc1	> 30 µM (inactive)
CNC(=O)c1ccc(NC(=O)C2CCN(c3ncnc4sc(C)c(C)c34)CC2)cc1	> 30 µM (inactive)
COc1cc(/C=C2/S/C(=N/S(=O)(=O)Cc3ccccc3)NC2=O)c([N+](=O)[O-])cc1OC	> 30 µM (inactive)
COc1ccccc1N/C=C/c1onc(C)c1[N+](=O)[O-]	> 30 µM (inactive)
Cc1cccc(NC(=O)c2sc3nc4c(c(-c5cccs5)c3c2N)CN(C)CC4)c1	> 30 µM (inactive)
COc1ccc(OCc2nc(N)nc(Nc3ccccc3)n2)cc1	> 30 µM (inactive)
O=c1c(O)c(-c2cc(O)c(O)c(O)c2)oc2cc(O)cc(O)c12	4.13 µM
Cc1cccc2cc(C#N)c(NCCNC(=S)NCCCN3CCOCC3)nc12	> 30 µM (inactive)
CC(C)c1ccc(C2CC(=O)N3CN(Cc4ccco4)CSC3=C2C#N)cc1 (centres undefined)	21 µM
COc1ccc(-c2cc(C(F)(F)F)nc(SCC(=O)NCc3cccs3)n2)cc1OC	> 30 µM (inactive)
O=C(Nc1ccccc1C(=O)NC1CCCCC1)c1ccco1	> 30 µM (inactive)

SMILES	AC50
Cc1cc(O)c(Oc2cc(C)cc(O)c2O)c(O)c1	> 30 µM (inactive)
Cc1ccc2c(c1)Oc1ccc(NC(=O)CCCl)cc1C(=O)N2	> 30 µM (inactive)
COc1ccc(C(=O)c2sc3nc(-c4ccc(OC)cc4)ccc3c2N)cc1	> 30 µM (inactive)
O=C1NC(=Nc2ccccc2)S/C1=C/c1cccs1	> 30 µM (inactive)
CCOC(=O)c1c(NC(=O)CN2C(=O)NC3(CCC(C)CC3)C2=O)sc(C)c1CC (centres undefined)	> 30 µM (inactive)
CN(CCO)c1ncnc2c1sc1nc(N3CCOCC3)c3c(c12)CCC3	> 30 µM (inactive)
COc1ccc(-c2nc(NC(=O)C3CC(=O)N(c4ccc5c(c4)OCCO5)C3)sc2C)cc1 (centres undefined)	> 30 µM (inactive)
CCN(CC)C(=O)c1ccc(NC(=O)Nc2ccccc2F)cc1	26.5 µM
Cc1ccc(N=C2NC(=O)/C(=C\c3ccco3)S2)cc1	> 30 µM (inactive)
COc1ccc(CCNc2nc(C)cc(C)n2)cc1OC	> 30 µM (inactive)
CC[n+]1c(/C=C/N(C)c2ccccc2)n(-c2ccccc2)c2ccc(-c3nc4ccccc4s3)cc21	> 30 µM (inactive)
CCn1c(=O)[nH]c(=O)c2c(N)c(C(=O)c3ccccc3OC)sc21	16.8 µM
Cc1oc2c(Cl)c(Cl)c(O)c(CN(C)C)c2c1C(=O)c1ccc(Cl)cc1	7.71 µM
O=C(CCn1[nH]c(=O)c2ccccc2c1=O)N1CCOCC1	> 30 µM (inactive)
CN(C)C(=O)Oc1ccc2c(c1)O/C(=C\c1cccc([N+](=O)[O-])c1)C2=O	> 30 µM (inactive)
O=C(COc1ccccc1Cl)NC1CC1	> 30 µM (inactive)
Nc1nc(Nc2cccc(F)c2)nc(NCc2ccco2)c1[N+](=O)[O-]	4.08 µM
CN(C)c1ccc(Nc2nc(N)c3ccccc3n2)cc1	18.2 µM
S=c1sc2ccccc2n1CCc1ccncc1	4.51 µM
CN1/C(=C/C(=S)NC(=O)C2(C)CC2(Cl)Cl)C(C)(C)c2ccccc21 (centres undefined)	> 30 µM (inactive)
CCN(CC)c1nc(N)c([N+](=O)[O-])c(NCCO)n1	> 30 µM (inactive)
O=C(CSc1ccc(F)cc1)Nc1ccc2c(c1)C(=O)NC2=O	12.5 µM
COc1ccc(-c2cnc(N)nc2-c2ccc(OC)cc2O)cc1	9.75 µM
COc1cc(C2C(C#N)=C(N)Oc3n[nH]c(-c4cccnc4)c32)ccc1OCC(N)=O (centres undefined)	> 30 µM (inactive)
COc1cccc(-c2nc(-c3ccccc3)[nH]c(=O)c2C#N)c1	> 30 µM (inactive)

SMILES	AC50
CC(C)NC(=O)c1sc2nc3c(c(-c4cccs4)c2c1N)CN(C)CC3	> 30 µM (inactive)
O=c1[nH]c(=O)n(C2CCCCCC2)c(O)c1C=NC1CCN(Cc2ccccc2)CC1	9.67 µM
CCCCOC(=O)c1ccc(N/C(=N\S(=O)(=O)c2ccccc2)c2ccccc2)cc1	> 30 µM (inactive)
O=C(Nc1sc2c(c1C(=O)O)CCC2)c1cccs1	> 30 µM (inactive)
Cc1ccc(Sc2ccc(NC(=O)CCl)cc2)cc1C	> 30 µM (inactive)
O=C(c1ccc(Cn2cnnn2)cc1)N1CCCC(Nc2ccc(F)c(F)c2)C1 (centres undefined)	16.1 µM
COc1cc(/C(C)=N/NC(=O)c2nnn(-c3nonc3N)c2-c2cccs2)ccc1O	1.95 µM
c1ccc2[nH]c(Cn3nnc4ccccc43)nc2c1	> 30 µM (inactive)
COc1ccc(-n2c(O)c(C=NC3CC3)c(=O)[nH]c2=O)cc1	24.9 µM
CCn1c(SCC(=O)N/N=C/C=C\c2ccco2)nc2ccccc21	> 30 µM (inactive)
COc1ccccc1NC(=O)c1ccc(C(=O)c2ccccc2)o1	> 30 µM (inactive)
CCOC(=O)c1c(NC(=O)CN2C(=O)NC3(CCCCC3C)C2=O)sc(C)c1CC (centres undefined)	> 30 µM (inactive)
CC1CCCC(C)N1C(=O)COC(=O)c1c[nH]c2ccccc12 (centres undefined)	> 30 µM (inactive)
O=C(Nc1cccc(-c2cnc3ccccc3n2)c1)c1cccc(NC(=O)c2ccco2)c1	> 30 µM (inactive)
C[C@@H]1O[C@@H](O[C@H]2[C@H](O)[C@@H](O)[C@H](Oc3c(-c4ccc(O)c(O)c4)oc4cc(O)cc(O)c4c3=O)O[C@@H]2CO)[C@H](O)[C@H](O)[C@H]1O	> 30 µM (inactive)
O=C(NCCCN1CCN(Cc2ccccc2Cl)CC1)Nc1ccccc1	> 30 µM (inactive)
Cc1cc(C)c2[nH]c(O)c(N=Nc3ccc(C(=O)O)cc3)c2c1	> 30 µM (inactive)
O=C1OCCC1Sc1nnc(-c2ccc3c(c2)OCO3)o1 (centres undefined)	25.9 µM
COc1cccc(Nc2nc(N)c([N+](=O)[O-])c(NCc3ccco3)n2)c1	5.75 µM
O=C(Nc1ccc(Cl)cn1)c1cccc(S(=O)(=O)N2CCOCC2)c1	> 30 µM (inactive)
Cc1sc2ncnc(N3CCC(C(=O)Nc4ccc(S(N)(=O)=O)cc4)CC3)c2c1C	28.2 µM
CN1/C(=C\C=C2C(=O)NC(=O)NC2=O)C(C)(C)c2ccccc21	27.9 µM
COc1c2ccccc2nc2ccccc12	> 30 µM (inactive)
CC(C)(C)OC(=O)N1CCC(NC(=O)c2nc[nH]c2C(=O)NC2CCN(C(=O)OC(C)(C)C)CC2)CC1	> 30 µM (inactive)
